Laboratory results from patent US20200405671A1, “METHODS AND MATERIALS FOR TREATING POLYCYSTIC KIDNEY DISEASE” (Mayo Foundation for Medical Education and Research, priority 2019, published 2020).
“Also recorded” adds a separate entry of the source.

Columns and labels:
[1] = test system: Pkd1^RC/RC mice; experiment: Betaine supplementation in drinking water in Pkd1^RC/RC mice: kidney/body weight and cystic index from histological sections; assay type: in vivo; details: p<0.01; for kidney/body weight: euthanized at 6 months of age, no betaine 2.25; for cystic index (percentage of cyst area within the total kidney section): no betaine 21.1%
Description: (§1) One month old Pkd1^RC/RC mice were divided into three groups and started treatment with regular water or regular water supplemented with 1% or 2% betaine (FIG. 2) for 5 months (n=16 per group). All mice were euthanized at 6 months of age, and kidneys harvested. Cystic index was determined from histological sections. 1H-NMR-based metabolomics analysis was performed from tissue urine and plasma samples.

[2] = 1H-NMR-based analysis of plasma and tissue betaine concentration after betaine supplementation; assay type: in vivo; details: Pkd1^RC/RC mice, vs no betaine, p<0.001; for tissue betaine concentration: kidney tissue
Description: as §1

[3] = test system: Pkd1^RC/RC mice; experiment: Intrarenal microvasculature quantified using a capillary index; assay type: in vivo; details: 6 months of age
Description: as §1
Intrarenal microvasculature was quantified using a capillary index. Capillaries in the cortex were identified by the presence of lumen, red blood cells, and/or an endothelial cell lining. For the PKD animals, the number of capillaries is calculated adjusting for the cystic area.

[4] = test system: Pkd1^RC/RC mice; experiment: Blood pressure (MAP) by tail cuff, CODA non-invasive blood pressure system; assay type: in vivo; details: compared with wild type (WT) animals
Description: as §1
Blood pressure was determined during the same time frame (9-11 am) in all animals in all groups, using the CODA non-invasive blood pressure system (Kent Scientific). Briefly, mice were guided into a plastic mouse holder and were left to acclimate to the holder for 5 minutes. Ten blood pressure (BP) measurements within 10 minutes were obtained by tail cuff.

[5] = 1HNMR spectroscopy of stability of betaine in water; assay type: physicochemical; details: 1% and 2% betaine in water, day 0, day 2 and day 8 (course of one week)
Excerpt: FIG. 2: ^1HNMR spectroscopy depicting stability of betaine in water during the course of 1 week. Three spectral lines on top indicating 2% betaine represent betaine concentration as determined by ^1HNMR spectroscopy at day 0, day, 2 and day 8. Below, three spectral lines indicating 1% betaine represent betaine concentration as determined by ^1HNMR spectroscopy at day 0, day, 2 and day 8. At the bottom, flat spectra can be seen for the animals receiving control water without betaine, indicated as control day 2 and 8. Overall, betaine was stable and non-significant changes in betaine concentration were observed during the course of one week.

[6] = 1% betaine in drinking water for 5 months
[7] = 2% betaine in drinking water for 5 months

C[N+](C)(C)CC(=O)[O-] [betaine, trimethylglycine]
kidney/body weight [1, 6]: 1.82 | cystic index (percentage of cyst area within the total kidney section) [1, 6]: 11.1% | kidney/body weight [1, 7]: 1.85 | cystic index (percentage of cyst area within the total kidney section) [1, 7]: 9.4% | tissue betaine concentration ([2]; 1% betaine in drinking water): significant increases; also recorded: increased | plasma betaine concentration ([2]; 1% betaine in drinking water): increased | tissue betaine concentration ([2]; 2% betaine in drinking water): significant increases; also recorded: increased | plasma betaine concentration ([2]; 2% betaine in drinking water): increased | capillary count (intrarenal microvasculature) ([3]; 1% betaine, female animals): not effective | capillary count (intrarenal microvasculature) ([3]; 1% betaine, male animals): preserved the capillary count | capillary count (intrarenal microvasculature) ([3]; 2% betaine, female animals): preserved capillary count | capillary count (intrarenal microvasculature) ([3]; 2% betaine, male animals): preserved the capillary count | Mean Arterial Pressure (MAP) ([4]; 1% betaine): preserved MAP within WT levels | Mean Arterial Pressure (MAP) ([4]; 2% betaine): preserved MAP within WT levels | stability of betaine in water (betaine concentration) [5]: stable
